Measurements taken from patent US20220257595A1, “MACITENTAN FOR USE IN TREATING PORTOPULMONARY HYPERTENSION” (ACTELION PHARMACEUTICALS LTD, priority 2019, published 2022).

How the values were obtained:
[1] = test system: patients with PoPH; test: PORTICO: serum NT-proBNP (incl. post-hoc 300 ng/L threshold shift); format: in vivo, human
Method: (v) Serum NT-proBNP: A blood sample was drawn at Baseline (Visit 2/Randomization), EOT-DB, and/or EOT-OL (whichever came last) for the analysis of serum NT-proBNP. Serum NT-proBNP samples were shipped to the central laboratory on dry ice as soon as possible after the blood sample had been drawn or stored frozen at −20° C. (−4° F.)±2° C. (±3.6° F.) until the shipment.
Statistical analysis: The change from baseline to Week 12 in mRAP, mPAP, cardiac index, TPR and SVO2 were analyzed on the FAS (with imputation) using an ANCOVA with factors for treatment group, background PAH-specific therapy at baseline (Yes/No as per IXRS, randomization stratification factor), region (Europe/North America/Latin America as per IXRS, randomization stratification factor) and a covariate for baseline corresponding variable. Other RHC variables are listed only. WHO FC is summarized on the FAS (with imputation) by time point and treatment group using frequency tables. […] Worsening was analyzed using a logistic regression model (exact) with covariates for treatment group, background PAH-specific therapy at baseline (Yes/No as per IXRS, randomization stratification factor) and region (Europe/North America/Latin America as per IXRS, randomization stratification factor). […] Change from baseline in 6MWD (up to Week 12) was analyzed using a mixed-effect model repeated measure (MMRM) with factors for treatment group, time point, treatment by time interaction, background PAH-specific therapy at baseline (Yes/No as per IXRS, randomization stratification factor) and region (Europe/North America/Latin America as per IXRS, randomization stratification factor), and covariates for baseline 6MWD and WHO FC. […] The ratio versus baseline in NT-proBNP was log-transformed and analyzed using an ANCOVA with covariates for treatment group, background PAH-specific therapy at baseline (Yes/No as per IXRS, randomization stratification factor), region (Europe/North America/Latin America as per IXRS, randomization stratification factor) and baseline log NT-proBNP. […]

[2] = test system: patients with PoPH; test: PORTICO safety: Child-Pugh classification and MELD score; format: in vivo
Text: For the evaluation of treatment-emergent safety endpoints in the DB phase, the observation period for each individual subject started at the time of the first administration of macitentan or placebo and ended with the start of OL treatment or 30 days after DB treatment discontinuation (whichever occurred first). The safety variables listed below apply to the DB treatment-emergent period and the macitentan treatment-emergent period. The DB treatment-emergent period was defined as the period from the DB treatment start date up to the EOT-DB+30 days or to the EOT-DB for patients entering OL. The macitentan treatment-emergent period was defined as the period from the first intake of macitentan up to end of macitentan treatment (EOMT)+30 days. EOMT was defined as EOT-DB (for patient who received macitentan only in the DB period) or EOT-OL when applicable. […]

[3] = Phase 1, chronic hepatic impairment, varying grades of liver disease severity; cited from earlier work

In the case of CCCNS(=O)(=O)Nc1ncnc(OCCOc2ncc(Br)cn2)c1-c1ccc(Br)cc1 [macitentan, N-[5-(4-Bromophenyl)-6-[2-[(5-bromo-2-pyrimidinyl)oxy]ethoxy]-4-pyrimidinyl]-N′-propylsulfamide], the “Patients with NT-proBNP above 300 ng/L at baseline decreasing to below threshold after 12 weeks” value ([1]; 6 of 16 macitentan patients, FAS no imputation, post-hoc) is reported as 37.5%, the “Geometric mean ratio of Week 12 to baseline NT-proBNP” value ([1]; FAS with imputation, macitentan group) is reported as 0.86 and the “NT pro-BNP shift: Week 12 Category 2” value ([1]; Total, Full analysis set, 10 mg, N = 43) is reported as 9 n (%). The “Patients with worsening in Child-Pugh category” value ([2]; DB phase, macitentan group n=23) was “none”, the “Median MELD score at Week 12” value ([2]; DB phase, range 6-15) was 10 and the “Patients worsening from Child-Pugh category A to B during macitentan treatment” value ([2]; combined DB+OL phase, patient had placebo in DB phase) was 1 patient. For the same molecule, the “Change in PK of macitentan and its metabolites in hepatic impairment” value [3] was “no clinically relevant change”.
